Assay in all cases: NCI-60 cell line screen, 48 h
Test [1] concerns SK-MEL-2 melanoma.
Test [2] concerns ACHN renal.
The subject of test [3] is DMS 114 small cell lung.
Test [4] has as its system DMS 273 small cell lung.
In test [5] the test system is KM20L2 colon.
For test [6], the system named is HCT-116 colon.
Test [7] concerns PC-3 prostate.
The subject of test [8] is OVCAR-3 ovarian.
The test system of test [9] is A498 renal.
The subject of test [10] is NCI/ADR-RES ovarian.

Where “and” joins values, the source holds several entries; their conditions need not be identical. Equal values may be shown once.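 Following 48 hours of exposure in 96-well plates, responses at five concentrations were used to interpolate endpoints linearly. At the GI50, growth is halved. TGI: concentration producing complete growth inhibition.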

`Cc1ccccc1NC(=O)CSc1nnc(-c2ccc(N=Cc3ccc(Cl)cc3)cc2)o1`: the TGI in [1], in test [2], in test [3], in [4], in [5] and in test [6] was > 100 µM throughout.

For the compound `C[C@@H]1C[C@@H]([C@H](O)CC2CC(=O)NC(=O)C2)C(=O)[C@@H](C)C1`, the GI50 was 0.243 µM in test [7]; 0.675 µM in test [8]; 0.164 µM in [1]; 0.155 µM in test [2]; 0.854 µM in [9]; 0.358 µM in [10]. In addition, in [6], the GI50 was 0.197 µM. The TGI in [7] was 4.51 µM; in test [1], 1.07 µM and 3.27 µM; in test [3], 1.79 µM; in test [10], 9.16 µM; in test [5], 21.5 µM; in test [6], 4.35 µM and 1.42 µM.

For the compound `O=C1CC23CCCCCCCCCCC2(C1)CC(=O)C3` (configuration not stated), the TGI is 41.5 µM in test [8]; 42.9 µM in test [1]; > 100 µM in [2]; 77.6 µM in test [3]; 52.5 µM in test [4].

With `CC(C)(C)C#COC(=O)c1ccccc1`, the TGI in test [8], in [1], in test [2], in [9], in test [3] and in test [5] was > 100 µM in each case. The TGI in test [6] is > 100 µM.

As to `CC(C)C[C@@H](N)[C@@H](O)C(=O)N[C@H](C(=O)N[C@H](C(=O)N[C@@H](CC(=O)O)C(=O)O)C(C)C)C(C)C`, the GI50 in test [7], in [8], in test [1], in test [2], in [9] and in test [10] was > 20 µM each time. The GI50 in test [6] was > 20 µM. Besides, the TGI in test [7], in test [8], in test [1], in test [2], in test [9] and in test [10] was > 20 µM in each case. Besides, the TGI in test [6] is > 20 µM.

Consider `CC(=O)Nc1ccc(C2CC(c3ccc([N+](=O)[O-])cc3)=Nc3ccccc3S2)cc1` (configuration not stated), for which the TGI in test [8] was 67.4 µM; in test [1] it was 32.9 µM; in test [2] it was 32.1 µM; in test [9] it was 33.3 µM; in test [4] it was 71.4 µM; in [5], 47.9 µM. Also, in test [6], the TGI stood at 25.1 µM.

Take `Cc1n[nH]c2ccccc2c1=O`: the TGI in test [7], in test [8], in test [1], in test [2], in test [9] and in test [10] was > 100 µM throughout. For the same compound, the TGI in test [6] was > 100 µM.

Regarding `c1cnc2c(c1)-n1cccc1C1(CCCCC1)NN2`, the TGI in test [8], in test [1], in [2], in [3], in test [4] and in [6] was > 100 µM in each case.

As to `CN1CCN(C2=NC(=O)/C(=C\c3ccc(N(C)C)cc3)S2)CC1`, the GI50 in [7], in test [8], in [1], in [2], in [9] and in test [10] was > 100 µM each time. Also, the GI50 in test [6] is > 100 µM. Further, the TGI in test [7], in [8], in test [1], in [2], in test [9] and in test [10] was > 100 µM throughout. Besides, the TGI in [6] was > 100 µM.

For the compound `N=C1CCCC1C(=S)SCCC(N)=O` (configuration not stated), the TGI in test [7], in test [8], in [1], in [2], in test [9] and in test [10] was > 100 µM each time. For the same compound, the TGI in test [6] was > 100 µM.

For `COc1cc2c(/C=C3\C(=O)Nc4ccccc43)c[nH]c2cc1C`, the GI50 is 0.213 µM in test [7]; 0.306 µM in test [8]; 17.7 µM in [1]; 1.64 µM in [2]; < 0.0243 µM in [9]; < 0.01 µM in test [10]. Moreover, the GI50 in [6] is < 0.01 µM. Moreover, the TGI in test [7] is 13.2 µM; in [8], 11.8 µM; in test [1], > 63.4 µM; in test [2] it was 4.51 µM; in [9], 16.5 µM; in test [10] it was 0.0736 µM. The TGI in test [6] is 1.22 µM.

As to `Cc1cccc(C2NC(=O)c3ccccc3N2)c1` (configuration not stated), the TGI was > 100 µM in [7]; > 100 µM in test [8]; > 42.8 µM in test [1]; > 100 µM in test [2]; > 73.4 µM in [9]; > 47.2 µM in test [10]. For the same compound, the TGI in test [6] is > 100 µM.

For the compound `O=c1c(Cc2ccccc2)c(O)cc2n1CCC2`, the TGI in [8], in test [2], in [9], in test [3], in test [5] and in test [6] was > 100 µM throughout.

With `O=c1[nH]ccc(CNC23CC4CC(CC(C4)C2)C3)c1O`, the TGI in [8], in test [1], in test [2], in test [9], in test [4] and in test [5] was > 100 µM each time. Also, in test [6], the TGI was > 100 µM.

In the case of `O=C1NC(O)n2c(=O)[nH]c(=O)n21` (configuration not stated), the TGI in [8], in test [1], in test [2], in [4], in test [5] and in test [6] was > 100 µM throughout.

Regarding `COc1cc(C)c2c(c1)CN1CN2Cc2cc(OC)cc(C)c21`, the TGI in test [8] was 54.2 µM; in test [1], > 100 µM; in test [2], > 100 µM; in [3] it was 75.1 µM; in test [4], > 100 µM; in test [6], > 100 µM.
